Measurements: patent US11136625B2, “Gene expression signatures predictive of subject response to a multi-kinase inhibitor and methods of using the same” (Crown Bioscience, Inc. (Taicang), priority 2013, dated 2021)

Tests used:
[1] = tested on: HCC-PDX model LIM1025 (code 002); test: Sorafenib antitumor activity in HCC HuPrime PDX model LIM1025; assay type: in vivo, Balb/c nude mice; conditions: 50 mg/kg p.o. qd × 14, P value <0.001
Source text: (§1) Patient tumor samples and engraftment in immunocompromised mice. […] (<10).
(§2) Evaluation of antitumor activity.

[2] = tested on: HCC-PDX model LIM752 (code 003); test: Sorafenib antitumor activity in HCC HuPrime PDX model LIM752; assay type: in vivo, Balb/c nude mice; conditions: 50 mg/kg p.o. qd × 14, P value <0.001
Source text: as §1, §2

[3] = tested on: HCC-PDX model LIM1081 (code 004); test: Sorafenib antitumor activity in HCC HuPrime PDX model LIM1081; assay type: in vivo, Balb/c nude mice; conditions: 50 mg/kg p.o. qd × 13, P value 0.015
Source text: as §1, §2

[4] = tested on: HCC-PDX model LIM1098 (code 005); test: Sorafenib antitumor activity in HCC HuPrime PDX model LIM1098; assay type: in vivo, Balb/c nude mice; conditions: 50 mg/kg qd × 14 p.o., P value 0.008
Source text: as §1, §2

[5] = tested on: HCC-PDX model LIM612 (code 006); test: Sorafenib antitumor activity in HCC HuPrime PDX model LIM612; assay type: in vivo, Balb/c nude mice; conditions: 50 mg/kg p.o. Qd × 22, P value 0.001
Source text: as §1, §2

[6] = tested on: HCC-PDX model LIM1035 (code 007); test: Sorafenib antitumor activity in HCC HuPrime PDX model LIM1035; assay type: in vivo, Balb/c nude mice; conditions: 50 mg/kg p.o. qd × 14, P value 0.005
Source text: as §1, §2

[7] = tested on: HCC-PDX model LIM1005 (code 008); test: Sorafenib antitumor activity in HCC HuPrime PDX model LIM1005; assay type: in vivo, Balb/c nude mice; conditions: 50 mg/kg p.o. qd × 14, P value 0.015
Source text: as §1, §2

[8] = tested on: HCC-PDX model LIM574 (code 009); test: Sorafenib antitumor activity in HCC HuPrime PDX model LIM574; assay type: in vivo, Balb/c nude mice; conditions: 50 mg/kg p.o. qd × 14, P value 0.002
Source text: as §1, §2

[9] = tested on: HCC-PDX model LIM941 (code 010); test: Sorafenib antitumor activity in HCC HuPrime PDX model LIM941; assay type: in vivo, Balb/c nude mice; conditions: 50 mg/kg p.o. 5 days on/2 days off, P value <0.001
Source text: as §1, §2

[10] = tested on: HCC-PDX model LIM1074 (code 011); test: Sorafenib antitumor activity in HCC HuPrime PDX model LIM1074; assay type: in vivo, Balb/c nude mice; conditions: 50 mg/kg p.o. qd × 13, P value 0.032
Source text: as §1, §2

[11] = tested on: HCC-PDX model LIM801 (code 012); conditions: 50 mg/kg p.o. 5 days on/2 days off, P value 0.001
Source text: (§3) We were interested in identifying models that would respond or not respond to Sorafenib. To this end, we tested a cohort of randomly selected 21 HCC HuPrime by treating them with Sorafenib.
(§4) Patient tumor samples and engraftment in immunocompromised mice. Freshly and surgically removed tumor tissues were obtained from the patients diagnosed as HCC through collaboration with the Beijing Keluoen Translational Medicine Institute and Hebei Medical University Fourth Hospital with approval by the Institutional Review Boards of Hebei Medical University Fourth Hospital and the informed consents from patients. The engraftments of patient tumor fragments into immunocompromised mice subcutaneously have been broadly described by others. Briefly, the tumors were sliced into 3×3×3 mm3 fragments and inoculated subcutaneously on the flank of mice (Balb/c nude, 6-8 wks old, female, Beijing HFK Bioscience Co. Ltd., Beijing, China). The tumor growth was monitored twice weekly by using a caliper. The established tumor models from these patient samples, called passage 0 or P0, were serially re-engrafted to maintain tumors, these subsequent passages were called P1, 2, 3 . . . (<10). […]

[12] = tested on: HCC-PDX model LIM1054 (code 013); test: Sorafenib antitumor activity in HCC HuPrime PDX model LIM1054; assay type: in vivo, Balb/c nude mice; conditions: 50 mg/kg p.o. qd × 14, P value 0.045
Source text: as §1, §2

[13] = tested on: HCC-PDX model LIM1097 (code 014); test: Sorafenib antitumor activity in HCC HuPrime PDX model LIM1097; assay type: in vivo, Balb/c nude mice; conditions: 50 mg/kg p.o. qd × 14, P value 0.046
Source text: as §1, §2

[14] = tested on: HCC-PDX model LIM1057 (code 015); test: Sorafenib antitumor activity in HCC HuPrime PDX model LIM1057; assay type: in vivo, Balb/c nude mice; conditions: p.o. 50 mg/kg, qd × 14, P value 0.003
Source text: as §1, §2

[15] = tested on: HCC-PDX model LIM1068 (code 016); test: Sorafenib antitumor activity in HCC HuPrime PDX model LIM1068; assay type: in vivo, Balb/c nude mice; conditions: 50 mg/kg p.o. qd × 13, P value 0.024
Source text: as §1, §2

[16] = tested on: HCC-PDX model LIF1069 (code 017); test: Sorafenib antitumor activity in HCC HuPrime PDX model LIF1069; assay type: in vivo, Balb/c nude mice; conditions: 50 mg/kg p.o. qd × 14, P value 0.024
Source text: as §1, §2

[17] = tested on: HCC-PDX model LIM1078 (code 018); test: Sorafenib antitumor activity in HCC HuPrime PDX model LIM1078; assay type: in vivo, Balb/c nude mice; conditions: 50 mg/kg p.o. qd × 13, P value 0.055
Source text: as §1, §2

[18] = tested on: HCC-PDX model LIM1088 (code 019); test: Sorafenib antitumor activity in HCC HuPrime PDX model LIM1088; assay type: in vivo, Balb/c nude mice; conditions: 50 mg/kg p.o. qd × 13, P value 0.182
Source text: as §1, §2

[19] = tested on: HCC-PDX model LIMsh050 (code 020); test: Sorafenib antitumor activity in HCC HuPrime PDX model LIMsh050; assay type: in vivo, Balb/c nude mice
Source text: as §3, §4

[20] = tested on: HCC-PDX model LIM334 (code 021); test: Sorafenib antitumor activity in HCC HuPrime PDX model LIM334; assay type: in vivo, Balb/c nude mice
Source text: as §1, §2

[21] = tested on: cohort of 21 hepatocellular carcinoma (HCC) patient derived xenografts (PDXs); test: Clinical trial-like study of Sorafenib in a cohort of 21 HCC HuPrime PDXs; assay type: in vivo, Balb/c nude mice; conditions: 13 out of 21 PDXs; daily oral Sorafenib 50 mg/kg
Source text: as §1, §2
Patient derived xenografts (PDXs) are considered experimental models mimicking patient tumors, or “patient avatars”. We performed a clinical-like trial (phase II-like) using a cohort of 21 hepatocellular carcinoma (HCC) patient derived xenografts (PDXs), also called patient avatar trial, for testing their response to multi-kinase inhibitor Sorafenib. […] Gene expression profiles of these PDXs were analyzed to reveal the mRNA expression signatures that may be predictive of the response to Sorafenib. This signature can be potentially used to develop companion diagnostics to stratify patent treatment, or individualized treatment.

[22] = tested on: advanced hepatocellular carcinoma (HCC); conditions: background statement; cited from earlier work

## CNC(=O)c1cc(Oc2ccc(NC(=O)Nc3ccc(Cl)c(C(F)(F)F)c3)cc2)ccn1 [Sorafenib]
[1]
  ΔT/ΔC (day14-day15): 0.01
[2]
  ΔT/ΔC (day14-day15): 0.10
[3]
  ΔT/ΔC (day14-day15): 0.14
[4]
  ΔT/ΔC (day14-day15): 0.14
[5]
  ΔT/ΔC (day14-day15): 0.15
[6]
  ΔT/ΔC (day14-day15): 0.16
[7]
  ΔT/ΔC (day14-day15): 0.21
[8]
  ΔT/ΔC (day14-day15): 0.21
[9]
  ΔT/ΔC (day14-day15): 0.23
[10]
  ΔT/ΔC (day14-day15): 0.35
[11]
  ΔT/ΔC (day14-day15): 0.37
[12]
  ΔT/ΔC (day14-day15): 0.38
[13]
  ΔT/ΔC (day14-day15): 0.41
[14]
  ΔT/ΔC (day14-day15): 0.43
[15]
  ΔT/ΔC (day14-day15): 0.47
[16]
  ΔT/ΔC (day14-day15): 0.47
[17]
  ΔT/ΔC (day14-day15): 0.48
[18]
  ΔT/ΔC (day14-day15): 0.54
[19]; model L10050, daily oral 50 mg/kg
  model response to Sorafenib (in words): quite or partially resistant
[19]; model LIMsh050, 50 mg/kg p.o. qd × 14, P value 0.134
  ΔT/ΔC (day14-day15): 0.78
[20]; model L10334, daily oral 50 mg/kg
  model response to Sorafenib (in words): quite or partially resistant
[20]; model LIM334, 50 mg/kg p.o. 5 days on/2 days off, P value 0.659
  ΔT/ΔC (day14-day15): 1.13
[21]
  PDXs that achieved effective tumor growth inhibition with % ΔT/ΔC<40% (p<0.05): 62%
[22]
  increase survival for HCC patients: 3 months
